# Test results: patent US10195156B2, “Compounds and compositions for intracellular delivery of agents” (ModernaTX, Inc., priority 2015, dated 2019)
# Like-named read-outs stand apart in the source and are kept apart here.
# Assays:
# [1] = Encapsulation efficiency of RNA (QUANT-IT RIBOGREEN RNA assay); format: physicochemical
# Summary of the method: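 Nanoparticle samples diluted to ~5 μg/mL RNA in TE buffer (pH 7.5), incubated with or without 2% Triton X-100 solution at 37 °C for 15 min, then RiboGreen added. Fluorescence read at ~480/520 nm, blank-subtracted; free RNA % = intact over Triton-disrupted signal.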
# [2] = pKa of nanoparticle compositions; format: physicochemical
# [3] = Lipid levels in liver and spleen 48 hours after administration; format: in vivo, rats; settings: for concentration at 48 h: Sprague-Dawley, rat, intravenous
# Summary of the method: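 Rats (n=3 or 6) received lipid nanoparticle formulations intravenously at 0.2 mg/kg or 0.5 mg/kg. Liver and spleen were harvested and frozen 48 h after dosing, and the lipid amount remaining in each tissue was measured and expressed as a fraction of the dose.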
# [4] = Concentration of RNA in nanoparticle composition (ultraviolet-visible spectroscopy); format: physicochemical; settings: Table 5, hEPO mRNA
# Procedure: Ultraviolet-visible spectroscopy can be used to determine the concentration of a therapeutic and/or prophylactic agent (e.g., RNA) in nanoparticle compositions. 100 μL of the diluted formulation in 1×PBS is added to 900 μL of a 4:1 (v/v) mixture of methanol and chloroform. After mixing, the absorbance spectrum of the solution is recorded, for example, between 230 nm and 330 nm on a DU 800 spectrophotometer (Beckman Coulter, Beckman Coulter, Inc., Brea, Calif.). The concentration of therapeutic and/or prophylactic agent in the nanoparticle composition can be calculated based on the extinction coefficient of the therapeutic and/or prophylactic agent used in the composition and on the difference between the absorbance at a wavelength of, for example, 260 nm and the baseline value at a wavelength of, for example, 330 nm.
# [5] = tested on: Luc expression; test: ApoE dependence of luciferase expression (ApoE knockout vs. wild-type mice); format: in vivo; settings: 0.5 mpk, 6 h
# Source text: FIG. 17 is a pair of graphs showing the ApoE dependence of luciferase (“Luc”) expression following administration of a composition containing Luc mRNA and Compound 4 to mice at a dose 0.5 mpk. The expression following administration of a composition containing Luc mRNA and MC3 is presented for comparison. […] The % change in Luc expression in livers of ApoE knockout vs. wild-type mice (i.e., (WT mean expression-KO mean expression)/WT mean expression]*100%) was 91.9% for Compound 4 and 97.5% for MC3. […] The % change in expression in spleens of ApoE knockout vs. wild-type mice was 4.34% for Compound 4 and 72.2% for MC3. Numbers 1-4 refer to the following: 1: Composition containing Compound 4, administered to ApoE knockout mice; 2: Composition containing Compound 4, administered to wild-type mice; 3: Composition containing MC3, administered to ApoE knockout mice; 4: Composition containing MC3, administered to wild-type mice.
# [6] = tested on: GFP expression in liver cells; test: Mouse liver immunohistochemistry (IHC) with GFP mRNA; format: in vivo; settings: FIG. 11, i.v., 0.5 mpk, 6 h (MC3, CD-1) or 8 h (Compound 4, LDLR knockout)
# Procedure: FIG. 11 is a pair of images comparing the results of a mouse liver immunohistochemistry (IHC) using mRNA expressing green fluorescent protein (GFP) after administration of nanoparticle compositions containing Compound 4 and MC3.
# FIG. 16 is a graph showing GFP levels in the livers of LDLR knockout mice at 30 min to 24 h after intravenous administration of an eGFP RNA in a lipid composition containing Compound 4. The liver GFP levels were determined via IHC. The square markers represent the number of GFP positive cells following administration of a dose of 0.1 mpk of the composition. The circular markers represent the number of GFP positive cells following administration of a dose of 0.5 mpk of the composition.
# [7] = Lipid clearance: % dose remaining in mouse liver 6 h and 24 h after administration of nanoparticle compositions; format: in vivo, CD-1 mice
# Source text: In contrast, hEPO expression in rats induced by administration of a nanoparticle composition including a compound according to one of formulae (I), (Ia1)-(Ia6), (Ib), (II), (IIa), (III), and (IIIa) was substantially […] than that measured for MC3. […] Table 7c and 7d show additional protein expressions and clearance data from compositions with various compounds disclosed herein as compared to with MC3.
# [8] = tested on: LDL-c; test: LDL levels in LDLr−/− mice after mRNA encoding the LDL receptor; format: in vivo, LDLR knockout mice; settings: Mus musculus; Table 7b; LDLr−/− mice, 0.5 mpk, LDLr; read-out: LDL levels lipid/untreated LDLr−/− mice 0.5 mpk, LDLr
# [9] = Table 1, rows without footnote mark
# [10] = Table 5, hEPO mRNA, 40:20:38.5:1.5 Lipid:DOPE:Chol:PEG-DMG
# [11] = liver, 48 hours after administration, read-out: Lipid in liver
# [12] = spleen, 48 hours after administration, read-out: Lipid in spleen
# [13] = liver, 48 hours after administration
# [14] = spleen, 48 hours after administration
structure (smiles),measurement,setting,value
"CCCCCCCCCCCCN(CCCCCCCCCCCC)CCN(CCCCCCCCCCCC)CCN1CCN(CCN(CCCCCCCCCCCC)CCCCCC(=O)OCCCCC)CC1 [Compound 12, Pentyl 6-((2-(4-(2-((2-(didodecylamino)ethyl)(dodecyl)amino)ethyl)piperazin-1-yl)ethyl)(dodecyl)amino)hexanoate]",EE (%),[1]; [9],96.9%
same,EE (%),[1]; [10],93.79%
same,pKa,[2]; [9],5.44
same,pKa,[2]; [10],5.444
same,concentration at 48 h,[3]; [11],16800 ng/g
same,concentration at 48 h,[3]; [12],2320 ng/g
same,% remaining dose in liver,[3]; [13],23.8%
same,% remaining dose in spleen,[3]; [14],0.22%
same,Conc.,[4]; 40:20:38.5:1.5 Lipid:DOPE:Chol:PEG-DMG,320.14 µg/mL
"CCCCCC=CCC=CCCCCCCCCC(CCCCCCCCC=CCC=CCCCCC)OC(=O)CCCN(C)C (centres unmarked) [MC3, heptatriaconta-6,9,28,31-tetraen-19-yl 4-(dimethylamino)butanoate, reference compound]",% change in Luc expression in livers of ApoE knockout vs. wild-type mice,"[5]; FIG. 17 Graph A, liver",97.5%
same,% change in expression in spleens of ApoE knockout vs. wild-type mice,"[5]; FIG. 17 Graph B, spleen",72.2%
same,EE (%),[1]; [9],97.70%
same,EE (%),[1]; Table 1b,97.3%
same,EE (%),"[1]; Table 5, hEPO mRNA, 50:10:38.5:1.5 Lipid:DSPC:Chol:PEG-DMG",97.37%
same,EE (%),[1]; Table 17-1,98.0%
same,EE (%),[1]; Table 19-1,97.6%
same,EE (%),"[1]; Table 20-1, rows without footnote mark",97.4%
same,EE (%),[1]; Table 21-1,98.1%
same,GFP protein expression in liver cell types (in words),[6],observed in both hepatocytes and Kupffer cells
same,concentration at 48 h,[3]; [11],21800 ng/g
same,concentration at 48 h,[3]; [12],2780 ng/g
same,% remaining dose in liver,[3]; [13],51%
same,dose remaining in the liver after 48 hours,[3]; [13],approximately 60%
same,% dose remainng Rat liver (48 h),"[3]; rat liver, 48 h",43.11%
same,% remaining dose in spleen,[3]; [14],0.44%
same,% Dose remaining 6 h CD-1 mice,"[7]; 6 h, CD-1 mice",88%
same,% Dose remaining 24 h CD-1 mice,"[7]; 24 h, CD-1 mice",55%
same,% Dose Remaining 6 hr,"[7]; Table 7c, 6 hr",55.70%
same,% Dose Remaining 24 hr,"[7]; Table 7c, 24 hr",55.43%
same,% dose remaining Mouse liver (24 h),"[7]; mouse liver, 24 h",55%
same,response vs control in vivo at 0.5 mg/kg,[8],55%
same,Conc.,[4]; 50:10:38.5:1.5 Lipid:DSPC:Chol:PEG-DMG,470.45 µg/mL
